This assay concerns the target human GluN1/GluN2B NMDA receptors (Homo sapiens, UniProt Q05586+Q13224). In words: Cell-based calcium flux (FLIPR) assay on cloned human NR1/NR2B ion channels expressed in mammalian cells. The note with it: standard assay; human GluN1/GluN2B, calcium flux (FLIPR), glutamate ~EC80. As for the experimental part:
Effects of Test Articles on Cloned Human NR1/NR2B Ion Channels Expressed in Mammalian Cells
NMDA receptors are ion channels that are highly permeable to Ca^2+ ions, rendering it possible to monitor NMDA receptor function using cell-based calcium flux assay. In this assay, co-agonists glutamate and glycine are added to cells heterologously expressing human GluN1/GluN2B NMDA receptors to initiate cellular Ca^2+ influx. The time course of the changes in intracellular calcium is measured using a fluorescent dye and a FLIPR (Fluorometric Imaging Plate Reader) device.
Twenty four hours before measurements, the expression of the NMDA receptors in the stable cell line is induced with Tet-On inducible system in the presence of a non-selective NMDA receptor blocker. On the day of the experiment, cell culture media is carefully washed and the cells are loaded with Calcium 5 Dye Kit (Molecular Devices) in dye loading buffer containing 149 mM NaCl, 4 mM KCl, 2 mM CaCl2, and 1.5 mM MgCl2, 10 mM HEPES and 5 mM D-glucose; pH 7.4. After 1 h incubation at the room temperature, the dye is washed away with the assay buffer (149 mM NaCl (standard assay) or 150 mM (HTS assay), 4 mM KCl (standard assay) or 3 mM (HTS assay), 2 mM CaCl2, 0.01 mM EDTA, 10 mM HEPES and 5 mM D-glucose; pH 7.4) In the FLIPR TETRA reader, various concentrations of the test compounds are added to the cells for 5 min while fluorescence is monitored to detect potential agonist activity. Next, co-agonists, glutamate and glycine are added for another 5 minutes. The concentration of glutamate corresponding to ˜EC80 (standard assay) or EC40 (HTS assay) is used to maximize the assay's signal window or the ability to detect NMDA receptor antagonists and negative allosteric modulators, respectively. A saturating concentration (10 μM) of glycine is also present in the assay. […] The fluorescent signal in the presence of test compounds is quantified and normalized to the signal defined by the appropriate control wells.

The IC50 is the midpoint of a concentration-inhibition curve.

Chain of human GluN1/GluN2B NMDA receptors (Q13224 27-1484, other chains not shown): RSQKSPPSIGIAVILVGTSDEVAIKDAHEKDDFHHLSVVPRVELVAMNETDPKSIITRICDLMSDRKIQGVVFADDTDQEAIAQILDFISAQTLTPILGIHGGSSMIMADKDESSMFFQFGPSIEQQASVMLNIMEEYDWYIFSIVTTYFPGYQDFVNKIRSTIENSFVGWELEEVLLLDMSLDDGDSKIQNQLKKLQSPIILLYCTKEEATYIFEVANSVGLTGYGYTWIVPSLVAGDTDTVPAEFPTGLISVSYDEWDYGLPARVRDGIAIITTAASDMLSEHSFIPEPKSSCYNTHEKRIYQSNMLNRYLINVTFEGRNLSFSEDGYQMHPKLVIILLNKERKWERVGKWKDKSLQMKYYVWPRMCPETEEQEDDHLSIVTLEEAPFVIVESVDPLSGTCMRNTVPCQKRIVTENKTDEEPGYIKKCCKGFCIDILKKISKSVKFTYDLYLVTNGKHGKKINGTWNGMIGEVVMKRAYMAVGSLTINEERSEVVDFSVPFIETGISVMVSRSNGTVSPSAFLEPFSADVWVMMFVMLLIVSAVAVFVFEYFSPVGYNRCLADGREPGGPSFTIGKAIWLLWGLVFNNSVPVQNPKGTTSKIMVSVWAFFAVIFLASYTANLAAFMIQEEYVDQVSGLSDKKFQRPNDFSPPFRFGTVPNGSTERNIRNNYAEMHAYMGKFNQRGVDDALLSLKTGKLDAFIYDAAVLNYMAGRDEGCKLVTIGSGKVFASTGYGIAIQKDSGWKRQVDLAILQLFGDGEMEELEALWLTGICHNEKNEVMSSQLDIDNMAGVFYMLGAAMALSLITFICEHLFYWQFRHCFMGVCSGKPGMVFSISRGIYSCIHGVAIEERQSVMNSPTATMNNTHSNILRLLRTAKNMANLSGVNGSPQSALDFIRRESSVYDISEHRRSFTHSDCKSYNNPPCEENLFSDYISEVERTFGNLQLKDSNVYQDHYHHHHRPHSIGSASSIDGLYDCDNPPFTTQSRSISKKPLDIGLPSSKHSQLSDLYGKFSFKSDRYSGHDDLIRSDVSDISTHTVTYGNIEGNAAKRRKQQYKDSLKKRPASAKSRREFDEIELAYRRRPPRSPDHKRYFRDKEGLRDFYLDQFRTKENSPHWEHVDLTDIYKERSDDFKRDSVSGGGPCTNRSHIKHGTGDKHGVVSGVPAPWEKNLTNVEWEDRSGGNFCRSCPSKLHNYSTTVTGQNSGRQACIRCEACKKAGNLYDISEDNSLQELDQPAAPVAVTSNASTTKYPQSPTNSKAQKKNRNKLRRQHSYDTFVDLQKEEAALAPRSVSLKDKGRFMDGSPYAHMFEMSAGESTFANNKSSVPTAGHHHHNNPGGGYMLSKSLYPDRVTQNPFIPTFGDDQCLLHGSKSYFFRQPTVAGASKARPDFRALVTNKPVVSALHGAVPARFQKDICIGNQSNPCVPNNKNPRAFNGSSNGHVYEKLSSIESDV

Take `Cc1ccnc(OCc2cn(-c3ccc(Cl)c(C(F)F)c3)nn2)n1` [Example 30, 2-[[1-[4-Chloro-3-(difluoromethyl)phenyl]triazol-4-yl]methoxy]-4-methyl-pyrimidine]: the IC50 came out at 0.004 µM.

For the compound `Cc1cnc(OCc2cn(-c3ccc(Cl)c(C(F)F)c3)nn2)nc1` [Example 31, 2-[[1-[4-Chloro-3-(difluoromethyl)phenyl]triazol-4-yl]methoxy]-5-methyl-pyrimidine], the IC50 worked out at 0.001 µM.

As to `CCc1cnc(OCc2cn(-c3ccc(Cl)c(C(F)F)c3)nn2)nc1` [Example 32, 2-[[1-[4-Chloro-3-(difluoromethyl)phenyl]triazol-4-yl]methoxy]-5-ethyl-pyrimidine], the IC50 came out at 0.002 µM.

As to `Fc1ccc(-n2cc(COc3ncccn3)nn2)cc1OC(F)F` [Example 33, 2-[[1-[3-(Difluoromethoxy)-4-fluoro-phenyl]triazol-4-yl]methoxy]pyrimidine], the IC50 worked out at 0.018 µM.

On to `Cc1cnc(OCc2cn(-c3ccc(Cl)c(OC(F)F)c3)nn2)cn1` [Example 34, 2-[[1-[4-Chloro-3-(difluoromethoxy)phenyl]triazol-4-yl]methoxy]-5-methyl-pyrazine], for which the IC50 is 0.159 µM.

For `FC(F)Oc1cnc(OCc2cn(-c3ccc(Cl)c(OC(F)F)c3)nn2)nc1` [Example 35, 2-[[1-[4-Chloro-3-(difluoromethoxy)phenyl]triazol-4-yl]methoxy]-5-(difluoromethoxy)pyrimidine], the IC50 came out at 0.006 µM.

For `Fc1ccc(-n2cc(CNc3ncccn3)nn2)cc1OC(F)F` [Example 36, N-[[1-[3-(Difluoromethoxy)-4-fluoro-phenyl]triazol-4-yl]methyl]pyrimidin-2-amine], the IC50 stood at 0.351 µM.

With `Cc1c(F)ccc(-n2cc(COc3ncc(Cl)cn3)nn2)c1F` [Example 37, 5-Chloro-2-[[1-(2,4-difluoro-3-methyl-phenyl)triazol-4-yl]methoxy]pyrimidine], the concentration for half-maximal inhibition (IC50) turned out to be 0.053 µM.

Take `Cc1cnc(OCc2cn(-c3ccc(F)c(C)c3F)nn2)nc1` [Example 38, 2-[[1-(2,4-Difluoro-3-methyl-phenyl)triazol-4-yl]methoxy]-5-methyl-pyrimidine]: the IC50 stood at 0.027 µM.

On to `CCc1cnc(OCc2cn(-c3ccc(F)c(C)c3F)nn2)nc1` [Example 39, 2-[[1-(2,4-Difluoro-3-methyl-phenyl)triazol-4-yl]methoxy]-5-ethyl-pyrimidine], for which the IC50 was determined as 0.015 µM.

`CCc1cnc(OCc2cn(-c3ccc(F)c(Br)c3)nn2)nc1` [Example 40, 2-[[1-(3-Bromo-4-fluoro-phenyl)triazol-4-yl]methoxy]-5-ethyl-pyrimidine]: the IC50 stood at 0.001 µM.

Consider `Fc1ccc(-n2cc(COc3ncc(Cl)cn3)nn2)cc1Br` [Example 42, 2-((1-(3-bromo-4-fluorophenyl)-1H-1,2,3-triazol-4-yl)methoxy)-5-chloropyrimidine], for which the IC50 came to 0.003 µM.

Regarding `CC(C)c1cnc(OCc2cn(-c3ccc(F)c(Br)c3)nn2)nc1` [Example 43, 2-[[1-(3-Bromo-4-fluoro-phenyl)triazol-4-yl]methoxy]-5-isopropylpyrimidine], the 50% inhibitory concentration (IC50) was determined as 0.005 µM.

Regarding `Fc1ccc(-n2cc(COc3ncc(C(F)(F)F)cn3)nn2)cc1Br` [Example 44, 2-[[1-(3-Bromo-4-fluoro-phenyl)triazol-4-yl]methoxy]-5-(trifluoromethyl)pyrimidine], the IC50 worked out at 0.005 µM.

As for `FC(F)c1cc(-n2cc(COc3ncc(C(F)(F)F)cn3)nn2)ccc1Cl` [Example 45, 2-[[1-[4-Chloro-3-(difluoromethyl)phenyl]triazol-4-yl]methoxy]-5-(trifluoromethyl)pyrimidine], the IC50 was found to be 0.004 µM.

Consider `COc1cnc(OCc2cn(-c3ccc(Cl)c(C(F)F)c3)nn2)nc1` [Example 46, 2-[[1-[4-Chloro-3-(difluoromethyl)phenyl]triazol-4-yl]methoxy]-5-methoxy-pyrimidine], for which the half-maximal inhibitory concentration (IC50) was determined as 0.001 µM.

Take `FC(F)c1cc(-n2cc(COc3ncc(Cl)cn3)nn2)ccc1Cl` [Example 47, 5-Chloro-2-[[1-[4-chloro-3-(difluoromethyl)phenyl]triazol-4-yl]methoxy]pyrimidine]: the IC50 was 0.003 µM.

In the case of `CC(C)c1cnc(OCc2cn(-c3ccc(Cl)c(C(F)F)c3)nn2)nc1` [Example 48, 2-[[1-[4-Chloro-3-(difluoromethyl)phenyl]triazol-4-yl]methoxy]-5-isopropyl-pyrimidine], the IC50 turned out to be 0.008 µM.

In the case of `Fc1ccc(-n2cc(COc3ncc(Cl)cn3)nn2)cc1C(F)F` [Example 49, 5-Chloro-2-[[1-[3-(difluoromethyl)-4-fluoro-phenyl]triazol-4-yl]methoxy]pyrimidine], the IC50 was found to be 0.003 µM.

With `Fc1ccc(-n2cc(COc3ncc(C(F)(F)F)cn3)nn2)cc1C(F)F` [Example 50, 2-[[1-[3-(Difluoromethyl)-4-fluoro-phenyl]triazol-4-yl]methoxy]-5-(trifluoromethyl)pyrimidine], the IC50 amounted to 0.007 µM.

As for `Cc1cnc(OCc2cn(-c3ccc(F)c(C(F)F)c3)nn2)nc1` [Example 51, 2-[[1-[3-(Difluoromethyl)-4-fluoro-phenyl]triazol-4-yl]methoxy]-5-methyl-pyrimidine], the IC50 is 0.001 µM.

For `Cc1ccnc(OCc2cn(-c3ccc(F)c(C(F)F)c3)nn2)n1` [Example 52, 2-[[1-[3-(Difluoromethyl)-4-fluoro-phenyl]triazol-4-yl]methoxy]-4-methyl-pyrimidine], the concentration for half-maximal inhibition (IC50) amounted to 0.008 µM.

With `Fc1ccc(-n2cc(COc3ncc(Cl)cn3)nn2)cc1OC(F)F` [Example 61, 5-Chloro-2-[[1-[3-(difluoromethoxy)-4-fluoro-phenyl]triazol-4-yl]methoxy]pyrimidine], the IC50 was determined as 0.003 µM.

For the compound `Fc1ccc(-n2cc(COc3ncc(C(F)(F)F)cn3)nn2)cc1OC(F)F` [Example 62, 2-[[1-[3-(Difluoromethoxy)-4-fluoro-phenyl]triazol-4-yl]methoxy]-5-(trifluoromethyl)pyrimidine], the IC50 came to 0.007 µM.

Turning to `Cc1cnc(OCc2cn(-c3ccc(F)c(OC(F)F)c3)nn2)nc1` [Example 63, 2-[[1-[3-(Difluoromethoxy)-4-fluoro-phenyl]triazol-4-yl]methoxy]-5-methyl-pyrimidine], the IC50 is 0.003 µM.

As for `Cc1ccnc(OCc2cn(-c3ccc(F)c(OC(F)F)c3)nn2)n1` [Example 64, 2-[[1-[3-(Difluoromethoxy)-4-fluoro-phenyl]triazol-4-yl]methoxy]-4-methyl-pyrimidine], the concentration for half-maximal inhibition (IC50) was found to be 0.007 µM.

In the case of `Fc1ccc(-n2cc(COc3ccc(C(F)(F)F)cn3)nn2)cc1C(F)F` [Example 65, 2-[[1-[3-(Difluoromethyl)-4-fluoro-phenyl]triazol-4-yl]methoxy]-5-(trifluoromethyl)pyridine], the IC50 turned out to be 0.056 µM.

With `Fc1cnc(OCc2cn(-c3ccc(Cl)c(C(F)F)c3)nn2)nc1` [Example 66, 2-[[1-[4-Chloro-3-(difluoromethyl)phenyl]triazol-4-yl]methoxy]-5-fluoro-pyrimidine], the IC50 came to 0.052 µM.

`CCc1cnc(OCc2cn(-c3ccc(F)c(C(C)(F)F)c3)nn2)nc1` [Example 67, 2-[[1-[3-(1,1-Difluoroethyl)-4-fluoro-phenyl]triazol-4-yl]methoxy]-5-ethyl-pyrimidine]: the IC50 came out at 0.015 µM.

Turning to `COc1cnc(OCc2cn(-c3ccc(F)c(C(C)(F)F)c3)nn2)nc1` [Example 68, 2-[[1-[3-(1,1-Difluoroethyl)-4-fluoro-phenyl]triazol-4-yl]methoxy]-5-methoxy-pyrimidine], the IC50 was found to be 0.007 µM.

In the case of `CC(F)(F)c1cc(-n2cc(COc3ncc(Cl)cn3)nn2)ccc1F` [Example 69, 5-Chloro-2-[[1-[3-(1,1-difluoroethyl)-4-fluoro-phenyl]triazol-4-yl]methoxy]pyrimidine], the IC50 was 0.009 µM.

As to `CC(C)c1cnc(OCc2cn(-c3ccc(F)c(C(C)(F)F)c3)nn2)nc1` [Example 70, 2-[[1-[3-(1,1-Difluoroethyl)-4-fluoro-phenyl]triazol-4-yl]methoxy]-5-isopropyl-pyrimidine], the IC50 came to 0.044 µM.

As for `CC(F)(F)c1cc(-n2cc(COc3ncc(C(F)(F)F)cn3)nn2)ccc1F` [Example 71, 2-[[1-[3-(1,1-Difluoroethyl)-4-fluoro-phenyl]triazol-4-yl]methoxy]-5-(trifluoromethyl)pyrimidine], the concentration for half-maximal inhibition (IC50) was 0.04 µM.

`CCc1cnc(OCc2cn(-c3ccc(F)c(C(F)(F)F)c3)nn2)nc1` [Example 72, 5-Ethyl-2-[[1-[4-fluoro-3-(trifluoromethyl)phenyl]triazol-4-yl]methoxy]pyrimidine]: the 50% inhibitory concentration (IC50) was 0.01 µM.

In the case of `COc1cnc(OCc2cn(-c3ccc(F)c(C(F)(F)F)c3)nn2)nc1` [Example 73, 2-[[1-[4-Fluoro-3-(trifluoromethyl)phenyl]triazol-4-yl]methoxy]-5-methoxy-pyrimidine], the IC50 came out at 0.008 µM.
